Measured values as given in patent US10053453B2, “Compounds and their use as BACE inhibitors” (AstraZeneca AB, priority 2014, dated 2018).
Where two headings read alike, the source gives them in different places.

Assays:
Human BACE2 = biological target: T1, Human BACE2 (Homo sapiens, UniProt Q9Y5Z0); assay: TR-FRET assay; type: biochemical; details: enzyme 2.7 μg/mL, substrate 100 nM, pH4.5
T1 construct: the soluble part of the human β-Secretase2 (AA1-AA473) was cloned using BACE2(1-473)-(AVT)-Fc-pDEST12.2 mammalian expression vector; AVT linker (C); made in house
T1 sequence (Q9Y5Z0 21-473): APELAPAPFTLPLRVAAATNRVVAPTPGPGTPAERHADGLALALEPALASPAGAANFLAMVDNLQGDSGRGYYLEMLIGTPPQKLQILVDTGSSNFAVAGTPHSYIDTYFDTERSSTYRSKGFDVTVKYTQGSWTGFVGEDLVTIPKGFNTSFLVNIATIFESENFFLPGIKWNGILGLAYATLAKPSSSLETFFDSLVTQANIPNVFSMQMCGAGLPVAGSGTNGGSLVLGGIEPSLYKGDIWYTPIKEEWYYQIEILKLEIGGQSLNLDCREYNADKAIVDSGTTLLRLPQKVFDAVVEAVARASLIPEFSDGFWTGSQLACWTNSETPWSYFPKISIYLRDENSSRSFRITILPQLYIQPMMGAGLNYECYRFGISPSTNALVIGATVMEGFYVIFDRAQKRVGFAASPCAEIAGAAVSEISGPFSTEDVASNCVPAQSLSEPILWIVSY

Human BACE1 = biological target: T2, Human BACE1 (Homo sapiens, UniProt P56817); assay: Diluted TR-FRET assay; type: biochemical; details: 50 times less enzyme, 6.5 h reaction time at r.t.; read-out: IC50 BACE1 (dil. TR-FRET)
T2 construct: the soluble part of the human β-Secretase1 (AA1-AA460) was cloned using the BACE1(1-460)-(AVT)-Fc-pGEN-IRES-neo mammalian expression vector; AVT linker (C); made in house
T2 sequence (P56817 22-460): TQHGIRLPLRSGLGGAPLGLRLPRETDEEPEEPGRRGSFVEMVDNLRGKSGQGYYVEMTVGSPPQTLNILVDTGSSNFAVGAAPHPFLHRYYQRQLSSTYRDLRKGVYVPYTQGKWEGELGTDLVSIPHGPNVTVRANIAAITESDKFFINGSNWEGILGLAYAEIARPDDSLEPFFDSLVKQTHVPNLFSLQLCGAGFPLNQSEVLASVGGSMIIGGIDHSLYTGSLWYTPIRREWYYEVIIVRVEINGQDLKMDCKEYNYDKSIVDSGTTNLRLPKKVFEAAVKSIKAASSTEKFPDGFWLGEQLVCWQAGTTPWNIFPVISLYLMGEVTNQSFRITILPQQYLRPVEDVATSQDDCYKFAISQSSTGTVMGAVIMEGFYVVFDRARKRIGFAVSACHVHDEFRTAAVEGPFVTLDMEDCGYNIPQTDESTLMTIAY
Procedure, shortened: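 Human BACE1 (residues 1-460) was fused to an IgG1 Fc affinity tag and stably expressed in HEK 293 cells. Using a Multidrop Combi, 7 μL enzyme was added to 0.8 μL compound in dimethylsulphoxide and incubated 10 minutes. Reactions were stopped with 5.5 μL NaOAC Stop solution (pH 9), and TR-FRET fluorescence was read on a Pherastar HTRF module.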

SH-SY5Y cells = assay: sAPPβ release assay
[1] = Homo sapiens, SH-SY5Y, read-out: IC50 Cell (sAPPβ release, nM), SH-SY5Y cells, compounds incubated 16-17 h

Question: How did the IC50 (Human BACE2) turn out when [2H]C([2H])([2H])O[C@H]1CC[C@@]2(Cc3ccc(-c4cnccn4)cc3[C@]23N=C(N)OC3([2H])[2H])C[C@@H]1C [Compound 72, (1S,1′R,3S,4S)-4-(methoxy-d3)-3-methyl-6′-(pyrazin-2-yl)-3′H,5″H-dispiro[cyclohexane-1,2′-indene-1′,4″-oxazol]-5″,5″-d2-2″-amine] was run?
Answer: The IC50 was > 5000 nM.

Question: What about the IC50 (Human BACE1) of the same compound?
Answer: Its IC50 is 203 nM.

Question: What about the IC50 (SH-SY5Y cells; [1]) of the same compound?
Answer: Its IC50 is 3.6 nM.

Question: What does the source list for [2H]C([2H])([2H])O[C@@H]1CC[C@]2(Cc3ccc(-c4cccnc4)cc3[C@]23N=C(N)OC3([2H])[2H])C[C@H]1C [Compound 80, (1R,1′R,3R,4R)-4-(methoxy-d3)-3-methyl-6′-(pyridin-3-yl)-3′H,5″H-dispiro[cyclohexane-1,2′-indene-1′,4″-oxazol]-5″,5″-d2-2″-amine]?
Answer: IC50 (Human BACE2): 600 nM; IC50 (Human BACE1): 45 nM; IC50 (SH-SY5Y cells; [1]): < 0.16 nM

Question: For [2H]C([2H])([2H])O[C@@H]1CC[C@]2(Cc3ccc(-c4cnccn4)cc3[C@]23N=C(N)OC3([2H])[2H])C[C@H]1C [Compound 81, (1R,1′R,3R,4R)-4-(methoxy-d3)-3-methyl-6′-(pyrazin-2-yl)-3′H,5″H-dispiro[cyclohexane-1,2′-indene-1′,4″-oxazol]-5″,5″-d2-2″-amine], which IC50 (Human BACE2) is on record?
Answer: Its IC50 is > 5000 nM.

Question: What about the IC50 (Human BACE1) of the same compound?
Answer: The IC50 was 423 nM.

Question: What about the IC50 (SH-SY5Y cells; [1]) of the same compound?
Answer: The IC50 was 17 nM.

Question: How did the IC50 (Human BACE2) turn out when [2H]C1([2H])CC2(N=C(N)O1)c1cc(-c3cncnc3)ccc1C[C@]21CC[C@@H](OC)CC1 (stereo partly drawn) [Compound 82, (1r,4r)-4-methoxy-6′-(pyrimidin-5-yl)-5″,6″-dihydro-3′H-dispiro[cyclohexane-1,2′-indene-1′,4″-[1,3]oxazin]-6″,6″-d2-2″-amine] was run?
Answer: Its IC50 is 1790 nM.

Question: What about the IC50 (Human BACE1) of the same compound?
Answer: The IC50 was 138 nM.

Question: What about the IC50 (SH-SY5Y cells; [1]) of the same compound?
Answer: The IC50 was 23 nM.

Question: What does the source list for [2H]C1([2H])CC2(N=C(N)O1)c1cc(-c3cncc(C#N)c3)ccc1C[C@]21CC[C@@H](OC)CC1 (stereo partly drawn) [Compound 84, 5-((1r,4r)-2″-amino-4-methoxy-5″,6″-dihydro-3′H-dispiro[cyclohexane-1,2′-indene-1′,4″-[1,3]oxazin]-6′-yl-6″,6″-d2)nicotinonitrile]?
Answer: IC50 (Human BACE2): 103 nM; IC50 (Human BACE1): 88.7 nM; IC50 (SH-SY5Y cells; [1]): 4.8 nM

Question: With [2H]C1([2H])CC2(N=C(N)O1)c1cc(-c3cc(C#N)cc(OC)c3)ccc1C[C@]21CC[C@@H](OC)CC1 (stereo partly drawn) [Compound 85, 3-((1r,4r)-2″-amino-4-methoxy-5″,6″-dihydro-3′H-dispiro[cyclohexane-1,2′-indene-1′,4″-[1,3]oxazin]-6′-yl-6″,6″-d2)-5-methoxybenzonitrile] as the compound, how does the IC50 (Human BACE2) read?
Answer: The IC50 was 62.5 nM.

Question: What about the IC50 (Human BACE1) of the same compound?
Answer: The IC50 was 31.8 nM.

Question: What about the IC50 (SH-SY5Y cells; [1]) of the same compound?
Answer: Its IC50 is 3.5 nM.

Question: How did the IC50 (Human BACE2) turn out when COCCCC1(C)Cc2ccc(-c3cc(C#N)cc(OC)c3)cc2C12COC(N)=N2 (stereo not drawn) [Compound 88, 3-(2′-amino-2-(3-methoxypropyl)-2-methyl-2,3-dihydro-5′H-spiro[indene-1,4′-oxazol]-6-yl)-5-methoxybenzonitrile] was run?
Answer: The IC50 was 340 nM.

Question: And the IC50 (Human BACE1)?
Answer: The IC50 was 1950 nM.

Question: What about the IC50 (SH-SY5Y cells; [1]) of the same compound?
Answer: The IC50 was 450 nM.

Question: For [2H]C1([2H])OC(N)=NC12c1cc(-c3cc(C#N)cc(OC)c3)ccc1CC2(C)C1CCOCC1 (stereo not drawn) [Compound 89, 3-(2′-amino-2-methyl-2-(tetrahydro-2H-pyran-4-yl)-2,3-dihydro-5′H-spiro[indene-1,4′-oxazol]-6-yl-5′,5′-d2)-5-methoxybenzonitrile], which IC50 (Human BACE2) is on record?
Answer: The IC50 was > 5000 nM.

Question: What about the IC50 (Human BACE1) of the same compound?
Answer: The IC50 was > 5000 nM.

Question: And the IC50 (SH-SY5Y cells; [1])?
Answer: The IC50 was 889 nM.

Question: Which results are given for COCCCC1Cc2ccc(-c3cc(C#N)cc(OC)c3)cc2C12COC(N)=N2 (stereo not drawn) [Compound 90, 3-(2′-amino-2-(3-methoxypropyl)-2,3-dihydro-5′H-spiro[indene-1,4′-oxazol]-6-yl)-5-methoxybenzonitrile]?
Answer: IC50 (Human BACE2): > 5000 nM; IC50 (Human BACE1): > 5000 nM; IC50 (SH-SY5Y cells; [1]): 715 nM

Question: What does the source list for COc1cc(C#N)cc(-c2ccc3c(c2)C2(COC(N)=N2)C(C2CCOCC2)C3)c1 (stereo not drawn) [Compound 91, 3-(2′-Amino-2-(tetrahydro-2H-pyran-4-yl)-2,3-dihydro-5′H-spiro[indene-1,4′-oxazol]-6-yl)-5-methoxybenzonitrile]?
Answer: IC50 (Human BACE2): 701 nM; IC50 (Human BACE1): 4660 nM; IC50 (SH-SY5Y cells; [1]): 331 nM

Question: With COCCC1Cc2ccc(-c3cc(C#N)cc(OC)c3)cc2C12COC(N)=N2 (stereo not drawn) [Compound 92, 3-(2′-amino-2-(2-methoxyethyl)-2,3-dihydro-5′H-spiro[indene-1,4′-oxazol]-6-yl)-5-methoxybenzonitrile] as the compound, how does the IC50 (Human BACE2) read?
Answer: The IC50 was 437 nM.

Question: What about the IC50 (Human BACE1) of the same compound?
Answer: The IC50 was 4160 nM.

Question: And the IC50 (SH-SY5Y cells; [1])?
Answer: Its IC50 is 223 nM.

Question: Which results are given for COCCC1(C)Cc2ccc(-c3cc(C#N)cc(OC)c3)cc2C12COC(N)=N2 (stereo not drawn) [Compound 93, 3-(2′-amino-2-(2-methoxyethyl)-2-methyl-2,3-dihydro-5′H-spiro[indene-1,4′-oxazol]-6-yl)-5-methoxybenzonitrile]?
Answer: IC50 (Human BACE2): 1210 nM; IC50 (Human BACE1): > 5000 nM; IC50 (SH-SY5Y cells; [1]): 561 nM

Question: With NC1=NC2(CO1)c1cc(-c3cncnc3)ccc1CC2C1CCOCC1 (stereo not drawn) [Compound 94, 6-(pyrimidin-5-yl)-2-(tetrahydro-2H-pyran-4-yl)-2,3-dihydro-5′H-spiro[indene-1,4′-oxazol]-2′-amine] as the compound, how does the IC50 (Human BACE2) read?
Answer: The IC50 was 701 nM.

Question: And the IC50 (Human BACE1)?
Answer: Its IC50 is 4660 nM.

Question: What about the IC50 (SH-SY5Y cells; [1]) of the same compound?
Answer: The IC50 was 331 nM.

Question: CC1(C2CCOCC2)Cc2ccc(-c3cncnc3)cc2C12COC(N)=N2 (stereo not drawn) [Compound 95, 2-methyl-6-(pyrimidin-5-yl)-2-(tetrahydro-2H-pyran-4-yl)-2,3-dihydro-5′H-spiro[indene-1,4′-oxazol]-2′-amine] was tested. Which IC50 (Human BACE2) did it give?
Answer: Its IC50 is > 5000 nM.

Question: And the IC50 (Human BACE1)?
Answer: Its IC50 is > 5000 nM.

Question: What about the IC50 (SH-SY5Y cells; read-out: IC50 Cell (sAPPβ release), SH-SY5Y cells, compounds incubated 16-17 h) of the same compound?
Answer: The IC50 was 889 nM.

Question: Which IC50 (Human BACE2) does the source give for CC1(C2Cc3ccc(-c4cncnc4)cc3C23COC(N)=N3)CCOCC1 (stereo not drawn) [Compound 96, 2-(4-methyltetrahydro-2H-pyran-4-yl)-6-(pyrimidin-5-yl)-2,3-dihydro-5′H-spiro[indene-1,4′-oxazol]-2′-amine] here?
Answer: Its IC50 is 1790 nM.

Question: And the IC50 (Human BACE1)?
Answer: The IC50 was > 5000 nM.

Question: What about the IC50 (SH-SY5Y cells; [1]) of the same compound?
Answer: Its IC50 is 205 nM.

Question: How did the IC50 (Human BACE2) turn out when C[C@@H]1CC(C2Cc3ccc(-c4cncnc4)cc3C23COC(N)=N3)C[C@H](C)O1 (stereo partly drawn) [Compound 97, 2-((2R,6S)-2,6-dimethyltetrahydro-2H-pyran-4-yl)-6-(pyrimidin-5-yl)-2,3-dihydro-5′H-spiro[indene-1,4′-oxazol]-2′-amine] was run?
Answer: Its IC50 is > 5000 nM.

Question: What about the IC50 (Human BACE1) of the same compound?
Answer: Its IC50 is > 5000 nM.

Question: And the IC50 (SH-SY5Y cells; [1])?
Answer: The IC50 was 1420 nM.

Question: NC1=NC2(CO1)c1cc(-c3cncnc3)ccc1CC2N1CCOCC1 (stereo not drawn) [Compound 98, 2-morpholino-6-(pyrimidin-5-yl)-2,3-dihydro-5′H-spiro[indene-1,4′-oxazol]-2′-amine] was tested. Which IC50 (Human BACE2) did it give?
Answer: The IC50 was > 1580 nM.

Question: And the IC50 (Human BACE1)?
Answer: Its IC50 is > 5000 nM.

Question: What about the IC50 (SH-SY5Y cells; Homo sapiens, SH-SY5Y, read-out: IC50 Cell (sAPPβ release, nM)) of the same compound?
Answer: Its IC50 is 1840 nM.

Question: For CC#Cc1cncc(-c2ccc3c(c2)C2(COC(N)=N2)C(N2CCOCC2)C3)c1 (stereo not drawn) [Compound 99, 2-morpholino-6-(5-(prop-1-yn-1-yl)pyridin-3-yl)-2,3-dihydro-5′H-spiro[indene-1,4′-oxazol]-2′-amine], which IC50 (Human BACE2) is on record?
Answer: The IC50 was 519 nM.

Question: What about the IC50 (Human BACE1) of the same compound?
Answer: The IC50 was 3190 nM.

Question: What about the IC50 (SH-SY5Y cells; [1]) of the same compound?
Answer: Its IC50 is 489 nM.

Question: What does the source list for COc1cc(C#N)cc(-c2ccc3c(c2)C2(COC(N)=N2)C(N2CCOCC2)C3)c1 (stereo not drawn) [Compound 100, 3-(2′-amino-2-morpholino-2,3-dihydro-5′H-spiro[indene-1,4′-oxazol]-6-yl)-5-methoxybenzonitrile]?
Answer: IC50 (Human BACE2): 1370 nM; IC50 (Human BACE1): > 5000 nM; IC50 (SH-SY5Y cells; [1]): 2160 nM

Question: For COc1cc(C#N)cc(-c2ccc3c(c2)C2(COC(N)=N2)C(C)(C2CCOCC2)C3)c1 (stereo not drawn) [Compound 101, 3-(2′-amino-2-methyl-2-(tetrahydro-2H-pyran-4-yl)-2,3-dihydro-5′H-spiro[indene-1,4′-oxazol]-6-yl)-5-methoxybenzonitrile], which IC50 (Human BACE2) is on record?
Answer: Its IC50 is 274 nM.

Question: And the IC50 (Human BACE1)?
Answer: Its IC50 is 194 nM.

Question: And the IC50 (SH-SY5Y cells; [1])?
Answer: Its IC50 is 75.6 nM.
